The source of these data is ChEMBL document CHEMBL4342421, “Current scenario of tetrazole hybrids for antibacterial activity” (Eur J Med Chem, 2019).

≈ marks a conversion by molar mass, not a printed value.

Test [1] relates to Staphylococcus aureus. The test can be described thus: Antibacterial activity against methicillin resistant Staphylococcus aureus N315 after 24 hrs by two-fold broth serial dilution method. The format is functional. As to conditions: N315, 24 h.
Test [2] concerns Bacillus subtilis. The test can be described thus: Antibacterial activity against Bacillus subtilis ATCC 21216 after 24 hrs by two-fold broth serial dilution method. The format is functional. As to conditions: ATCC 21216, 24 h.
Another test concerns Micrococcus luteus. The test can be described thus: Antibacterial activity against Micrococcus luteus ATCC 4698 after 24 hrs by two-fold broth serial dilution method. In kind it is functional. Particulars: ATCC 4698, 24 h.
Test [3] concerns Escherichia coli. Nature of the test: Antimicrobial activity against Escherichia coli JM 109 after 24 hrs by two-fold broth serial dilution method. Particulars: JM 109, 24 h. The format is functional.
Test [4] concerns Pseudomonas aeruginosa. The test can be described thus: Antimicrobial activity against Pseudomonas aeruginosa ATCC 27853 after 24 hrs by two-fold broth serial dilution method. In kind it is functional. As to conditions: ATCC 27853, 24 h.
The next test deals with Shigella dysenteriae. The test can be described thus: Antimicrobial activity against Shigella dysenteriae after 24 hrs by two-fold broth serial dilution method. In kind it is functional.
Test [5] has as its system Candida albicans. Nature of the test: Antifungal activity against Candida albicans ATCC 76615 after 24 hrs. In kind it is functional. As to conditions: ATCC 76615, 24 h.
A further test concerns Cyberlindnera jadinii. Nature of the test: Antifungal activity against Candida utilis after 24 hrs. The format is functional. Particulars: Williopsis jadinii.
Test [6] concerns Aspergillus flavus. The test can be described thus: Antifungal activity against Aspergillus flavus after 24 hrs. The format is functional.
A further test deals with Saccharomyces cerevisiae. The test can be described thus: Antifungal activity against Saccharomyces cerevisiae after 24 hrs. In kind it is functional.
In another test the test system is Pichia norvegensis. Nature of the test: Antifungal activity against Candida mycoderma after 24 hrs. In kind it is functional.
The subject of test [7] is Pseudomonas aeruginosa. The test can be described thus: Antimicrobial activity against Pseudomonas aeruginosa assessed as zone of inhibition at 5 mg/ml. The format is functional. As to conditions: read-out: IZ.
In test [8] the test system is Staphylococcus aureus. The test can be described thus: Antimicrobial activity against Staphylococcus aureus assessed as zone of inhibition at 5 mg/ml. The format is functional. As to conditions: read-out: IZ.
Another test concerns Klebsiella pneumoniae. The test can be described thus: Antimicrobial activity against Klebsiella pneumoniae assessed as zone of inhibition at 5 mg/ml. In kind it is functional. Particulars: read-out: IZ.
Test [9] deals with Escherichia coli. Nature of the test: Antimicrobial activity against Escherichia coli assessed as zone of inhibition at 5 mg/ml. Particulars: read-out: IZ. The format is functional.
The test system of test [10] is Aspergillus flavus. The test can be described thus: Antifungal activity against Aspergillus flavus. In kind it is functional.
Test [11] has as its system Aspergillus niger. Nature of the test: Antifungal activity against Aspergillus niger. In kind it is functional.
The next test concerns Fusarium oxysporum. The test can be described thus: Antifungal activity against Fusarium oxysporum. The format is functional.
Test [12] relates to Escherichia coli. The test can be described thus: Antimicrobial activity against Escherichia coli. The format is functional.
Test [13] deals with Pseudomonas aeruginosa. Nature of the test: Antimicrobial activity against Pseudomonas aeruginosa. In kind it is functional.
In test [14] the test system is Staphylococcus aureus. The test can be described thus: Antimicrobial activity against Staphylococcus aureus. In kind it is functional.
Test [15] concerns Bacillus cereus. Nature of the test: Antimicrobial activity against Bacillus cereus. In kind it is functional.
In test [16] the test system is Candida albicans. Nature of the test: Antifungal activity against Candida albicans. In kind it is functional.
The test system of test [17] is Staphylococcus aureus. Nature of the test: Antimicrobial activity against Staphylococcus aureus assessed as zone of inhibition at 250 ug/ml. Particulars: read-out: IZ. The format is functional.
Test [18] relates to Bacillus cereus. Nature of the test: Antimicrobial activity against Bacillus cereus assessed as zone of inhibition at 250 ug/ml. Particulars: read-out: IZ. The format is functional.
The test system of test [19] is Escherichia coli. The test can be described thus: Antimicrobial activity against Escherichia coli assessed as zone of inhibition at 250 ug/ml. Particulars: read-out: IZ. In kind it is functional.
In test [20] the test system is Pseudomonas aeruginosa. The test can be described thus: Antimicrobial activity against Pseudomonas aeruginosa assessed as zone of inhibition at 250 ug/ml. As to conditions: read-out: IZ. The format is functional.
The test system of test [21] is Candida albicans. The test can be described thus: Antifungal activity against Candida albicans assessed as zone of inhibition at 250 ug/ml. Particulars: read-out: IZ. The format is functional.
The test system of test [22] is Aspergillus niger. The test can be described thus: Antifungal activity against Aspergillus niger assessed as zone of inhibition at 250 ug/ml. In kind it is functional. As to conditions: read-out: IZ.
Test [23] relates to Escherichia coli. Nature of the test: Antimicrobial activity against Escherichia coli assessed as zone of inhibition at 250 ug/ml after 24 hrs by disk diffusion method. Particulars: read-out: IZ. In kind it is functional.
The test system of test [24] is Bacillus subtilis. Nature of the test: Antimicrobial activity against Bacillus subtilis. In kind it is functional.
For a further test, the system named is Proteus vulgaris. The test can be described thus: Antimicrobial activity against Proteus vulgaris. In kind it is functional.
The subject of the next test is Salmonella typhimurium. Nature of the test: Antimicrobial activity against Salmonella typhimurium. As to conditions: Salmonella enterica. In kind it is functional, Salmonella enterica subsp. enterica serovar Typhimurium.
Another test concerns Streptococcus pneumoniae. Nature of the test: Antimicrobial activity against Streptococcus pneumoniae. The format is functional.
For another test, the system named is Proteus mirabilis. Nature of the test: Antimicrobial activity against Proteus mirabilis. The format is functional.
The test system of the next test is Prescottella equi. The test can be described thus: Antimicrobial activity against Rhodococcus equi. As to conditions: Rhodococcus (subgen. Prescottella) equi. The format is functional.
A further test relates to Bacillus thuringiensis. The test can be described thus: Antimicrobial activity against Bacillus thuringiensis. The format is functional.

In the case of `Cc1cc(=O)oc2cc(OCC(O)Cn3nnnc3C)ccc12` (centres undefined), the MIC in the test on Staphylococcus aureus [1], against Bacillus subtilis [2], against Micrococcus luteus, in the test on Escherichia coli [3], against Pseudomonas aeruginosa [4] and with Shigella dysenteriae was 4 to 512 µg/mL (≈ 12.6 to 1620 µM) each time. For the same compound, the MIC in the test with Candida albicans [5], against Cyberlindnera jadinii, with Aspergillus flavus [6], against Saccharomyces cerevisiae and in the test on Pichia norvegensis was 4 to 512 µg/mL (≈ 12.6 to 1620 µM) each time.
As for `CCn1cc(C(=O)O)c(=O)c2cc(F)c(N3CCNCC3)cc21` [NORFLOXACIN], the MIC with Staphylococcus aureus [1], against Bacillus subtilis [2], in the test on Micrococcus luteus, with Escherichia coli [3], against Pseudomonas aeruginosa [4] and in the test on Shigella dysenteriae was 1 to 16 µg/mL (≈ 3.13 to 50.1 µM) each time. Also, the MIC against Candida albicans [5], against Cyberlindnera jadinii, against Aspergillus flavus [6], with Saccharomyces cerevisiae and against Pichia norvegensis was 1 to 16 µg/mL (≈ 3.13 to 50.1 µM) in each case.
On to `Cc1ccc2cc(Cn3cc(CSc4nnnn4-c4ccccc4)nn3)c(C)nc2c1`, for which the zone of inhibition at 5000 µg/mL with Pseudomonas aeruginosa [7], in the test on Staphylococcus aureus [8], with Klebsiella pneumoniae and in the test with Escherichia coli [9] was 11 to 19 mm in each case.
As for `c1ccc(-n2cc(-c3nnn[nH]3)nn2)cc1`, the MIC against Aspergillus flavus [10], against Aspergillus niger [11] and in the test with Fusarium oxysporum was 100 µg/mL (≈ 469 µM) in each case.
`O=[N+]([O-])c1cccc(-c2nnnn2-c2nc3ccccc3s2)c1`: the MIC against Escherichia coli [12], against Pseudomonas aeruginosa [13], in the test on Staphylococcus aureus [14], against Bacillus cereus [15], in the test with Candida albicans [16] and against Aspergillus niger [11] was 50 to 100 µg/mL (≈ 154 to 308 µM) in each case. The zone of inhibition at 250 µg/mL with Staphylococcus aureus [17], in the test on Bacillus cereus [18], in the test with Escherichia coli [19], in the test on Pseudomonas aeruginosa [20], in the test with Candida albicans [21] and with Aspergillus niger [22] was 16 to 26 mm in each case. The zone of inhibition at 250 µg/mL in the test on Escherichia coli [23] was 18 to 26 mm.
In the case of `Clc1ccc(-c2nnnn2-c2nc3ccccc3s2)cc1`, the MIC in the test with Escherichia coli [12], with Pseudomonas aeruginosa [13], against Staphylococcus aureus [14], in the test on Bacillus cereus [15], in the test with Candida albicans [16] and against Aspergillus niger [11] was 50 to 100 µg/mL (≈ 159 to 319 µM) throughout. In addition, the zone of inhibition at 250 µg/mL in the test with Staphylococcus aureus [17], in the test on Bacillus cereus [18], in the test on Escherichia coli [19], with Pseudomonas aeruginosa [20], in the test on Candida albicans [21] and with Aspergillus niger [22] was 16 to 26 mm each time. Besides, in the test on Escherichia coli [23], the zone of inhibition at 250 µg/mL was 18 to 26 mm.
Turning to `Clc1ccc(-n2cc(-c3nnn[nH]3)nn2)cc1`, the MIC with Aspergillus flavus [10], with Aspergillus niger [11] and against Fusarium oxysporum was 100 µg/mL (≈ 404 µM) each time.
As to `Cc1nnc(SCC2=C(C(=O)O)N3C(=O)[C@@H](NC(=O)Cn4cnnn4)[C@H]3SC2)s1` [CEFAZOLIN], the MIC in the test with Bacillus subtilis [24], in the test on Proteus vulgaris, against Salmonella typhimurium, in the test on Streptococcus pneumoniae, in the test with Proteus mirabilis and with Prescottella equi was 0.063 to 8 µg/mL (≈ 0.139 to 17.6 µM) each time. Further, the MIC with Bacillus thuringiensis was 0.063 to 8 µg/mL (≈ 0.139 to 17.6 µM).
Consider `CCn1cc(C(=O)O)c(=O)c2cc(F)c(N3CCN(C)CC3)cc21` [PEFLOXACIN], for which the zone of inhibition at 5000 µg/mL in the test on Pseudomonas aeruginosa [7], with Staphylococcus aureus [8], in the test with Klebsiella pneumoniae and with Escherichia coli [9] was 28 to 36 mm each time.
